Reference: patent US9067937B2 (priority 2012, dated 2015)
Where a name gives a salt, the structure may show the parent alone.

What was measured:
MELK = MELK (Homo sapiens, UniProt Q14680); experiment: Kinase assay (IMAP fluorescence polarization, FITC-labeled histone H3 peptide); assay type: biochemical; conditions: 50 micro-M ATP
Procedure: MELK activity was determined in the presence or absence of compounds using fluorescein isothiocyanate-labeled (FITC-labeled) histone H3 peptide as a substrate. […] The serially diluted compounds, 0.8 ng/micro-L […] (Carna Biosciences) and 100 nM FITC-labeled histone H3 peptide were reacted in a reaction buffer (20 mM HEPES, 0.01% Tween-20, 0.3 mM MgCl2, 2 mM dithiothreitol, 50 micro-M ATP, pH 7.4) at room temperature for 1 hour. The reaction was stopped by the addition of three fold assay volume of progressive binding solution. […] IC50 values were calculated by nonlinear four parameter fit using SigmaPlot, version 10.0 (Systat Software, Inc.).

22Rv1 cells = experiment: Cell-based assay, anti-proliferative activity (Cell Counting Kit-8, 72 hours); parameters: species or system human; conditions: Homo sapiens, 22Rv1, 72 h, read-out: IC50 (μM) (22Rvl)
Procedure: (§1) Active candidate inhibitors against MELK were evaluated for their target-specific cytotoxicity using 22Rv1, T47D, A549, DU4475 and HT-1197 cells was used for negative control. 100 micro-L of cell suspension was seeded onto 96-well microtiter plate (ViewPlate-96FTC, PerkinElmer). The initial cell concentration of 22Rv1, T47D, A549, DU4475, and HT1197 were 3,000 cells/well, 2,000 cells/well and 2,500 cells/well, respectively. Cellular growth was determined using Cell Counting Kit-8 (DOJINDO) at 72 hours after the exposure of the candidate inhibitors. […] Accurate IC50 values were calculated as described previously.

A549 cells = experiment: as above; parameters: species or system human; conditions: Homo sapiens, A549, 72 h, read-out: IC50 (μM) (A549)
Procedure: as §1

DU4475 cells = experiment: as above; parameters: species or system human; conditions: Homo sapiens, DU-4475, 72 h, read-out: IC50 (μM) (DU4475)
Procedure: as §1

T47D cells = experiment: as above; parameters: species or system human; conditions: Homo sapiens, T47D, 72 h, read-out: IC50 (μM) (T47D)
Procedure: as §1

HT1197 cells = experiment: Cell-based assay, anti-proliferative activity, MELK-negative control (Cell Counting Kit-8, 72 hours); parameters: species or system human; conditions: Homo sapiens, HT1197, 72 h, read-out: IC50 (μM) (HTll97)
Procedure: as §1, with “100” for “Active candidate inhibitors against MELK were evaluated for their target-specific cytotoxicity using 22Rv1, T47D, A549, DU4475 and HT-1197 cells was used for negative control. 100”

MELK, sequence (Q14680 whole entry, looked up): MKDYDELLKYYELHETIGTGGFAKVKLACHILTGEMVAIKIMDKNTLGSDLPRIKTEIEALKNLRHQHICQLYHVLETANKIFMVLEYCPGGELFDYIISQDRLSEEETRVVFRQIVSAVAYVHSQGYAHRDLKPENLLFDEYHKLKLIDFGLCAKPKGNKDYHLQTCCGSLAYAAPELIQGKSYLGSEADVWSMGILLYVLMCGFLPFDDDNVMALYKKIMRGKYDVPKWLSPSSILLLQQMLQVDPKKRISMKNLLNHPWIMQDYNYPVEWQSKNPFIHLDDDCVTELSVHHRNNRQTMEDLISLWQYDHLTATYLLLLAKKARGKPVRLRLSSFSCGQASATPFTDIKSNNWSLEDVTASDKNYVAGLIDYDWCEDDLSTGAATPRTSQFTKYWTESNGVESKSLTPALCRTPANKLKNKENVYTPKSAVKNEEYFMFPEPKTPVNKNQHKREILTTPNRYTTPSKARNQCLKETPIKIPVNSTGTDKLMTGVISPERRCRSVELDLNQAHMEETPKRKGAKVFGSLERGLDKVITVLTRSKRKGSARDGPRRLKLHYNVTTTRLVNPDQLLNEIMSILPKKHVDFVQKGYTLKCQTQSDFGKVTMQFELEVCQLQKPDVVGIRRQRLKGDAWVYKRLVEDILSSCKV

Row | SMILES | IC50 (MELK) [µM] | IC50 (22Rv1 cells) [µM] | IC50 (A549 cells) [µM] | IC50 (DU4475 cells) [µM] | IC50 (T47D cells) [µM] | IC50 (HT1197 cells) [µM]
1 | N[C@@H]1CCCN(c2ccc(Nc3c(C(=O)C4CC4)cnc4ccc(-c5cc(Cl)c(O)c(Cl)c5)nc34)cn2)C1 [Example 201, (R)-(4-{[6-(3-aminopiperidin-1-yl)pyridin-3-yl]amino}-6-(3,5-dichloro-4-hydroxyphenyl)-1,5-naphthyridin-3-yl) (cyclopropyl)methanone] | 0.00093 | 0.0061 | 0.0061 | 0.003 | 0.0025 | 0.032
2 | COc1cc(-c2ccc3ncc(S(C)(=O)=O)c(N[C@H]4CC[C@H](CN(C)C)CC4)c3n2)cc(Cl)c1O [Example 14, 6-(3-Chloro-4-hydroxy-5-methoxyphenyl)-4-{trans-4-[(dimethylamino)methyl]-cyclohexylamino}-3-methylsulfonyl-1,5-naphthyridine-dihydrochloride] | 0.0009 | 0.05 | 0.033 | 0.0096 | 0.027 | 0.14
3 | CC(=O)c1cnc2ccc(-c3cc(F)c(O)c(Cl)c3)nc2c1NC1CCN(C)CC1 [Example 46, 1-{6-(3-Chloro-5-fluoro-4-hydroxyphenyl)-4-[(1-methylpiperidin-4-yl)amino]-1,5-naphthyridin-3-yl}ethanone] | 0.0061 | 0.14 | 0.098 | 0.14 | 0.092 | 0.53
4 | CC(=O)c1cnc2ccc(-c3cc(F)c(O)c(Cl)c3)nc2c1N[C@H]1CC[C@H](CN(C)CCO)CC1 [Example 49, 1-[6-(3-Chloro-5-fluoro-4-hydroxyphenyl)-4-(trans-4-{[(2-hydroxyethyl)(methyl)amino]-methyl}cyclohexylamino)-1,5-naphthyridin-3-yl]ethanone dihydrochloride] | 0.001 | 0.0087 | 0.021 | 0.0039 | 0.0039 | 0.49
5 | CC(=O)c1cnc2ccc(-c3ccc(O)cc3)nc2c1N[C@H]1CC[C@H](CN(C)C)CC1 [Example 88, 1-(4-{trans-4-[(Dimethylamino)methyl]cyclohexylamino}-6-(4-hydroxyphenyl)-1,5-naphthyridin-3-yl)ethanone dihydrochloride] | 0.0045 | 0.04 | 0.023 | 0.021 | 0.031 | 0.039
6 | CNC1CCN(c2ccc(Nc3c(C(C)=O)cnc4ccc(-c5cc(Cl)c(O)c(Cl)c5)nc34)cn2)C1 (stereo not drawn) [Example 53, 1-(6-(3,5-Dichloro-4-hydroxyphenyl)-4-{6-[3-(methylamino)pyrrolidin-1-y]pyridin-3-ylamino}-1,5-naphthyridin-3-yl)ethanone trihydrochloride] | 0.0015 | 0.078 | 0.2 | 0.071 | 0.042 | 100
7 | CCC(=O)c1cnc2ccc(-c3cc(Cl)c(O)c(Cl)c3)nc2c1N[C@H]1CC[C@H](CN(C)C)CC1 [Example 206, 1-[6-(3,5-dichloro-4-hydroxyphenyl)-4-({trans-4-[(dimethylamino)methyl]cyclohexyl}amino)-1,5-naphthyridin-3-yl)]propan-1-one dihydrochloride] | 0.0013 | 0.022 | 0.061 | 0.023 | 0.01 | 10
8 | CC(=O)c1cnc2ccc(-c3cc(C)c(O)c(C)c3)nc2c1N[C@H]1CC[C@H](CN(C)C)CC1 [Example 59, 1-(4-{trans-4-[(Dimethylamino)methyl]-cyclohexylamino}-6-(4-hydroxy-3,5-dimethylphenyl)-1,5-naphthyridin-3-yl) ethanone dihydrochloride] | 0.0047 | 2.5 | 0.23 | 0.21 | 0.39 | 7.5
9 | CC(=O)c1cnc2ccc(-c3cc(F)c(O)c(Cl)c3)nc2c1N[C@H]1CC[C@H](CCN(C)C)CC1 [Example 10, 1-(6-(3-Chloro-5-fluoro-4-hydroxyphenyl)-4-{trans-4-[2-(dimethylamino)ethyl]-cyclohexylamino}-1,5-naphthyridin-3-yl)ethanone dihydrochloride] | 0.0014 | 0.01 | 0.012 | 0.0049 | 0.0039 | 0.2
10 | CC(=O)c1cnc2ccc(-c3cc(Cl)c(O)c(Cl)c3)nc2c1NC1CCN(C)CC1 [Example 45, 1-{6-(3,5-Dichloro-4-hydroxyphenyl)-4-[(1-methylpiperidin-4-yl)amino]-1,5-naphthyridin-3-yl}ethanone] | 0.0058 | 0.096 | 0.065 | 0.096 | 0.086 | 0.45
11 | CC(=O)c1cnc2ccc(-c3ccc4[nH]cnc4c3)nc2c1N[C@H]1CC[C@H](CN(C)C)CC1 [Example 55, 1-(6-(1H-Benzo[d]imidazol-5-yl)-4-{trans-4-[(dimethylamino)methyl]cyclohexylamino}-1,5-naphthyridin-3-yl)ethanone trihydrochloride] | 0.017 | 0.3 | 0.25 | 0.65 | 0.084 | 2
12 | CC(=O)c1cnc2ccc(-c3cc(Cl)c(O)c(Cl)c3)nc2c1N[C@H]1CC[C@H](CN2CCCC2)CC1 [Example 61, 1-{6-(3,5-Dichloro-4-hydroxyphenyl)-4-[trans-4-(pyrrolidin-1-ylmethyl)cyclohexylamino]-1,5-naphthyridin-3-yl}ethanone dihydrochloride] | 0.0004 | 0.011 | 0.012 | 0.0044 | 0.0069 | 0.15
13 | CN(C)[C@H]1CC[C@H](Nc2c(S(C)(=O)=O)cnc3ccc(-c4cc(Cl)c(O)c(Cl)c4)nc23)CC1 [Example 15, 2,6-Dichloro-4-{8-[trans-4-(dimethylamino)cyclohexylamino]-7-(methylsulfonyl)-1,5-naphthyridin-2-yl}phenol dihydrochloride] | 0.0005 | 0.026 | 0.092 | 0.0027 | 0.018 | 2.2
14 | CC(=O)c1cnc2ccc(-c3ccc(O)nc3)nc2c1N[C@H]1CC[C@H](CN(C)C)CC1 [Example 86, 1-(4-{trans-4-[(Dimethylamino)methyl]cyclohexylamino}-6-(6-hydroxypyridin-3-yl)-1,5-naphthyridin-3-yl)ethanone dihydrochloride] | 0.011 | 5.3 | 8 | 6.5 | 6.2 | 10
15 | N[C@H]1CCCN(c2ccc(Nc3c(C(=O)C4CC4)cnc4ccc(-c5cc(Cl)c(O)c(Cl)c5)nc34)cn2)C1 [Example 40, (S)-{4-[6-(3-Aminopiperidin-1-yl)pyridin-3-ylamino]-6-(3,5-dichloro-4-hydroxyphenyl)-1,5-naphthyridin-3-yl}(cyclopropyl)methanone trihydrochloride] | 0.0012 | 0.034 | 0.29 | 0.02 | 0.025 | 4.2
16 | CC(=O)c1cnc2ccc(-c3cc(Cl)c(O)c(Cl)c3)nc2c1N[C@H]1CC[C@H](NC(=O)C(C)N)CC1 (stereo partly drawn) [Example 73, N-{trans-4-[3-Acetyl-6-(3,5-dichloro-4-hydroxyphenyl)-1,5-naphthyridin-4-ylamino]-cyclohexyl}-2-aminopropanamide dihydrochloride] | 0.0075 | 0.027 | 0.18 | 0.0043 | 0.0086 | 100
17 | CC(=O)c1cnc2ccc(-c3ccc(O)c(OC(F)(F)F)c3)nc2c1N[C@H]1CC[C@H](CN(C)C)CC1 [Example 11, 1-(4-{trans-4-[(Dimethylamino)methyl]cyclohexylamino}-6-[4-hydroxy-3-(trifluoromethoxy)-phenyl]-1,5-naphthyridin-3-yl)ethanone dihydrochloride] | 0.0027 | 0.066 | 0.042 | 0.049 | 0.027 | 0.14
18 | N[C@@H]1CCCN(c2ccc(Nc3c(C(=O)C4CC4)cnc4ccc(-c5cc(F)c(O)c(Cl)c5)nc34)cn2)C1 [Example 202, (R)-(4-{[6-(3-aminopiperidin-1-yl)pyridin-3-yl]amino}-6-(3-chloro-5-fluoro-4-hydroxyphenyl)-1,5-naphthyridin-3-yl) (cyclopropyl) methanone] | 0.00046 | 0.0044 | 0.0054 | 0.001 | 0.0038 | 0.047
